Reference: the SangsterLogP compilation

Experiment: method code SF-HPLC, from DOI: 10.1023/a:1015933504191, PMID: 2122435
Conditions: pH 7.4

Structure (SMILES) | logD
CCCC(CCC)OC(=O)n1cnc(C[C@H](NC(=O)[C@@H]2CCC(=O)N2)C(=O)N2CCC[C@H]2C(N)=O)c1 | 1.2
NC(=O)[C@@H]1CCCN1C(=O)[C@H](Cc1cn(C(=O)OC2CCCCC2)cn1)NC(=O)[C@@H]1CCC(=O)N1 | 0.6
CCCCCCOC(=O)n1cnc(C[C@H](NC(=O)[C@@H]2CCC(=O)N2)C(=O)N2CCC[C@H]2C(N)=O)c1 | 0.71
CCCCCCCCOC(=O)n1cnc(C[C@H](NC(=O)[C@@H]2CCC(=O)N2)C(=O)N2CCC[C@H]2C(N)=O)c1 | 1.88
CCC(CC)OC(=O)n1cnc(C[C@H](NC(=O)[C@@H]2CCC(=O)N2)C(=O)N2CCC[C@H]2C(N)=O)c1 | 0.2
CCCCC(CC)COC(=O)n1cnc(C[C@H](NC(=O)[C@@H]2CCC(=O)N2)C(=O)N2CCC[C@H]2C(N)=O)c1 (some centres not stated) | 1.82

Further lines, results first:

logD | Structure (SMILES)
-1.88 | COC(=O)n1cnc(C[C@H](NC(=O)[C@@H]2CCC(=O)N2)C(=O)N2CCC[C@H]2C(N)=O)c1
-0.44 | CC(C)COC(=O)n1cnc(C[C@H](NC(=O)[C@@H]2CCC(=O)N2)C(=O)N2CCC[C@H]2C(N)=O)c1
-1.3 | CCOC(=O)n1cnc(C[C@H](NC(=O)[C@@H]2CCC(=O)N2)C(=O)N2CCC[C@H]2C(N)=O)c1
-0.8 | CC(C)OC(=O)n1cnc(C[C@H](NC(=O)[C@@H]2CCC(=O)N2)C(=O)N2CCC[C@H]2C(N)=O)c1
-0.47 | CCCCOC(=O)n1cnc(C[C@H](NC(=O)[C@@H]2CCC(=O)N2)C(=O)N2CCC[C@H]2C(N)=O)c1
-0.11 | NC(=O)[C@@H]1CCCN1C(=O)[C@H](Cc1cn(C(=O)OCc2ccccc2)cn1)NC(=O)[C@@H]1CCC(=O)N1
